Results as given in patent publication US20230241205A1, “SARS-COV-2 IMMU[…] AND USES THEREOF” (TScan Therapeutics, Inc., priority 2020, published 2023).

Assays:
Format in all cases: cell-based, human
[1] = system: memory CD8+ T cells of convalescent COVID-19 patients; target cells expressing only HLA-A*03:01; settings: share of screened convalescent patients whose memory CD8+ T cells recognised the epitope; allele A*03
OC43 and HKU1 = assay: T-Scan screen, reactivity to corresponding epitopes in OC43 and HKU1 ORFeomes; settings: COVID-19 patient memory CD8+ T cells
[2] = system: memory CD8+ T cells of convalescent COVID-19 patients; target cells expressing only HLA-A*02:01; settings: of 9 HLA-A*02:01 patients

| Substance | reactivity to corresponding epitopes in OC43 and HKU1 (OC43 and HKU1) | patients in whom epitope or region was identified / recognized [2] | other results |
| --- | --- | --- | --- |
| KCYGVSPTKY | – | – | % of Pts (Screen) [1]: 100% |
| KLWAQCVQL | do not recognize them | – | – |
| ORF1ab aa 3881-3900: 20-aa segment of SARS-CoV-2 ORF1ab recognized in the T-Scan screen | – | 7 of 9 | – |
| S aa 261-280: 20-aa segment of SARS-CoV-2 S protein recognized in the T-Scan screen | – | 7 of 9 | – |
| SPRWYFYYL | all four of the patients | – | – |
